Read-outs that look alike come from different tables or passages of the source. Marks after values point to notes of the source that are not given here.
Experiments:
[1] = tested on: 102-week old Hy-Line W-36 White Leghorn hens
Procedure: Experiment 2. […] The photoperiod was 17 hours of light per day (0330 hours to 2030 hours).
The objective was to use T4 to humanely induce molting in hens that are continuously provided with ad libitum access to palatable feed meeting or exceeding all National Research Council (1994) standards. Developing a fully efficacious yet affordable molting protocol was predicated on determining the minimum effective level for T4 supplementation. Factors that potentially may affect the required level of T4 supplementation include: (1) uncertainty regarding the efficiency of T4 absorption by the gastrointestinal tract, (2) the possibility that continuous dietary ingestion of T4 could trigger substantially different biological responses when compared single daily injections, and (3) the likelihood that daily T4 intake would diminish in parallel with molt-related reductions in feed intake associated with cessation in egg production. A spontaneous and voluntary loss of appetite (anorexia) commonly accompanies seasonal molting and broodiness in a variety of avian species (Berry, 2003; Webster, 2003). Accordingly, the responses of hens to diets containing 10, 20, and 40 mg T4/kg, to bracket the anticipated range of T4 needed to cause an effective molt, were determined.

[2] = tested on: 60-week old Hy-Line W-36 White Leghorn hens; conditions: for Feed Intake: day 22 to day 28
Procedure: Experiment 1. […] The photoperiod was 17 hours of light per day (0330 hours to 2030 hours).

Bovans caged laying hens = assay: Experiment 6: molting of caged laying hens with dietary L-thyroxine or thyroactive iodinated casein; type: in vivo, chickens; conditions: for 9 Jun. 2005 (9th d Trt) Body Wt Change: 10 hours of light daily; for 25 May 2005 Initial Body Wt: before 7-day pretest
Description: Experiment 6. Molting of Caged Laying with Dietary L-Thyroxine or Thyroactive Iodinated Casein
In Experiment 6, a conventional feed withdrawal molting procedure was compared with 5 dietary thyroxine treatments. Body weight loss after 9 days was greater, days to 0% egg production (9 days) shorter, ovary plus oviduct weight numerically lighter on day 9 of treatment, but eggs collected on day 4 of treatment had thinner shells, in the feed withdrawal group.

turkey hens = conditions: cited from earlier work
laying hens = conditions: cited from earlier work
[3] = 40 mg T4/kg test diet for 10 days

N[C@@H](Cc1cc(I)c(Oc2cc(I)c(O)c(I)c2)c(I)c1)C(=O)O [L-thyroxine, 3,5,3′,5′-tetraiodothyronine]
Time to onset of molt after T4 feeding was initiated ([1]; 10 mg T4 kg Group, 10 days on test diets, half of the hens): 11 days
Feed consumption change from days 2-4 (% FCC) ([1]; 10 mg/kg feed 6 d, Day 11-14): −19.7%
Feed consumption (FC) ([1]; 10 mg/kg feed 6 d, Days 2-4 (pre-treatment)): 101.3 g/hen/d
Feed consumption (FC) ([1]; 10 mg/kg feed 6 d, Days 5-7): 60.0 g/hen/d
Feed consumption change from days 2-4 (% FCC) ([1]; 10 mg/kg feed 6 d, Days 5-7): −40.8%
Feed consumption (FC) ([1]; 10 mg/kg feed 6 d, Days 8-10): 35.3 g/hen/d
Feed consumption change from days 2-4 (% FCC) ([1]; 10 mg/kg feed 6 d, Days 8-10): −65.2%
Feed consumption (FC) ([1]; 10 mg/kg feed 10 d, Day 11-14): 47.3 g/hen/d
Feed consumption change from days 2-4 (% FCC) ([1]; 10 mg/kg feed 10 d, Day 11-14): −43.7%
Feed consumption (FC) ([1]; 10 mg/kg feed 10 d, Days 2-4 (pre-treatment)): 84.0 g/hen/d
Feed consumption (FC) ([1]; 10 mg/kg feed 10 d, Days 5-7): 56.0 g/hen/d
Feed consumption change from days 2-4 (% FCC) ([1]; 10 mg/kg feed 10 d, Days 5-7): −33.3%
Feed consumption (FC) ([1]; 10 mg/kg feed 10 d, Days 8-10): 33.7 g/hen/d
Feed consumption change from days 2-4 (% FCC) ([1]; 10 mg/kg feed 10 d, Days 8-10): −59.9%
Feed consumption (FC) ([1]; 20 mg/kg feed 6 d, Day 11-14): 73.7 g/hen/d
Feed consumption change from days 2-4 (% FCC) ([1]; 20 mg/kg feed 6 d, Day 11-14): −28.4%
Feed consumption (FC) ([1]; 20 mg/kg feed 6 d, Days 2-4 (pre-treatment)): 103.0 g/hen/d
Feed consumption (FC) ([1]; 20 mg/kg feed 6 d, Days 5-7): 42.0 g/hen/d
Feed consumption change from days 2-4 (% FCC) ([1]; 20 mg/kg feed 6 d, Days 5-7): −59.2%
Feed consumption (FC) ([1]; 20 mg/kg feed 6 d, Days 8-10): 33.7 g/hen/d
Feed consumption change from days 2-4 (% FCC) ([1]; 20 mg/kg feed 6 d, Days 8-10): −67.3%
Feed consumption (FC) ([1]; 20 mg/kg feed 10 d, Day 11-14): 32.7 g/hen/d
Feed consumption change from days 2-4 (% FCC) ([1]; 20 mg/kg feed 10 d, Day 11-14): −72.9%
Feed consumption (FC) ([1]; 20 mg/kg feed 10 d, Days 2-4 (pre-treatment)): 120.7 g/hen/d
Feed consumption (FC) ([1]; 20 mg/kg feed 10 d, Days 5-7): 54.7 g/hen/d
Feed consumption change from days 2-4 (% FCC) ([1]; 20 mg/kg feed 10 d, Days 5-7): −54.7%
Feed consumption (FC) ([1]; 20 mg/kg feed 10 d, Days 8-10): 30.0 g/hen/d
Feed consumption change from days 2-4 (% FCC) ([1]; 20 mg/kg feed 10 d, Days 8-10): −75.1%
Hen-day egg production ([1]; 20 mg/kg feed 10 d, day 4 (pre-treatment)): 75%
Hen-day egg production ([1]; 20 mg/kg feed 10 d, day 30): 25%
Loss of initial body weight [1, 3]: approximately 21%
Reduction of feed intake [1, 3]: approximately 85%
Feed consumption (FC) ([1]; 40 mg/kg feed 6 d, Day 11-14): 46.7 g/hen/d
Feed consumption change from days 2-4 (% FCC) ([1]; 40 mg/kg feed 6 d, Day 11-14): −52.5%
Feed consumption (FC) ([1]; 40 mg/kg feed 6 d, Days 2-4 (pre-treatment)): 98.3 g/hen/d
Feed consumption (FC) ([1]; 40 mg/kg feed 6 d, Days 5-7): 36.7 g/hen/d
Feed consumption change from days 2-4 (% FCC) ([1]; 40 mg/kg feed 6 d, Days 5-7): −62.7%
Feed consumption (FC) ([1]; 40 mg/kg feed 6 d, Days 8-10): 13.7 g/hen/d
Feed consumption change from days 2-4 (% FCC) ([1]; 40 mg/kg feed 6 d, Days 8-10): −86.1%
Hen-day egg production ([1]; 40 mg/kg feed 6 d, day 20): 25%
Hen-day egg production ([1]; 40 mg/kg feed 6 d, day 22): 25%
Hen-day egg production ([1]; 40 mg/kg feed 6 d, day 24): 50%
Feed consumption (FC) ([1]; 40 mg/kg feed 10 d, Day 11-14): 19.3 g/hen/d
Feed consumption change from days 2-4 (% FCC) ([1]; 40 mg/kg feed 10 d, Day 11-14): −83.4%
Feed consumption (FC) ([1]; 40 mg/kg feed 10 d, Days 2-4 (pre-treatment)): 116.3 g/hen/d
Feed consumption (FC) ([1]; 40 mg/kg feed 10 d, Days 5-7): 37.3 g/hen/d
Feed consumption change from days 2-4 (% FCC) ([1]; 40 mg/kg feed 10 d, Days 5-7): −67.9%
Feed consumption (FC) ([1]; 40 mg/kg feed 10 d, Days 8-10): 22.0 g/hen/d
Feed consumption change from days 2-4 (% FCC) ([1]; 40 mg/kg feed 10 d, Days 8-10): −81.1%
Hen-day egg production ([1]; 40 mg/kg feed 10 d, day 12): 0%
Hen-day egg production ([1]; 40 mg/kg feed 10 d, day 14): 0%
Hen-day egg production ([1]; 40 mg/kg feed 10 d, day 16): 0%
Hen-day egg production ([1]; 40 mg/kg feed 10 d, day 18): 0%
Hen-day egg production ([1]; 40 mg/kg feed 10 d, day 20): 0%
Mortality ([1]; 10, 20, 40 mg T4/kg feed, 6 or 10 days): No mortality occurred in any of the Groups
Time within which egg production was consistently reduced ([1]; 20 and 40 mg T4/kg feed): ≤ 4 days
Effect on egg production ([2]; 250 μg T4 per kg body weight i.m. for 12 consecutive days): did not reduce egg production significantly
Day after start of T4 injection on which molting began in all cages ([2]; 500 μg T4 Group): 11 days
Time after start of injecting at which egg production was significantly reduced ([2]; 500 μg T4 Group): 4 days
Day after start of T4 injection on which molting began in all cages ([2]; 1,000 μg T4 Group): 9 days
Time after start of injecting at which egg production was significantly reduced ([2]; 1,000 μg T4 Group): 4 days
Mortality ([2]; 1,000 μg T4 Group, 2 of 8 hens, died 9th and 10th day after start of injection): 25%
Day after start of injection on which molting commenced in all cages ([2]; 2,000 μg T4 Group): 9 days
Time to rapid and complete cessation of egg production ([2]; 2,000 μg T4 per kg body weight i.m. for 3 consecutive days): ≤ 6 days
Day after start of injection on which molting commenced in all cages ([2]; 4,000 μg T4 Group): 9 days
Mortality ([2]; 4000 μg T4 Group, 1 of 4 hens, died 8th day after start of injection): 25%
Time to rapid and complete cessation of egg production ([2]; 4,000 μg T4 per kg body weight i.m. for 3 consecutive days): ≤ 4 days
End of Injections Body Weight ([2]; 250 mcg/kg BW i.m. 12 d): 1300 g
Feed Intake ([2]; 250 mcg/kg BW i.m. 12 d): 58.7 g/hen/day
Feed Intake ([2]; 500 mcg/kg BW i.m. 8 d): 52.3 g/hen/day
Feed Intake ([2]; 1,000 mcg/kg BW i.m. 8 d): 31.4 g/hen/day
Feed Intake ([2]; 2,000 mcg/kg BW i.m. 3 d): 20.2 g/hen/day
Feed Intake ([2]; 4,000 mcg/kg BW i.m. 3 d): 11.7 g/hen/day
9 Jun. 2005 (9th d Trt) Body Wt Change (Bovans caged laying hens; 20 mg T4/kg diet): −0.50^b lb
25 May 2005 Initial Body Wt (Bovans caged laying hens; 20 mg T4/kg diet): 3.49 lb
Days to 0% egg production (Bovans caged laying hens; 40 mg T4/kg diet): 11 days
Weight loss (Bovans caged laying hens; 40 mg T4/kg diet): −0.54 lb
9 Jun. 2005 (9th d Trt) Body Wt Change (Bovans caged laying hens; 40 mg T4/kg diet): −0.60^b lb
25 May 2005 Initial Body Wt (Bovans caged laying hens; 40 mg T4/kg diet): 3.57 lb
Time out of egg production after treatment (turkey hens; 2 mg/hen/day i.m. (Lien and Siopes 1993)): 4 weeks
Egg laying (turkey hens; 3 mcg/mL water (600 to 900 mcg/bird/day), 20 to 25 week old turkey females (Bilezikian et al. 1980)): rarely lay eggs
Effect on egg production and molting (laying hens; 0.2 mg per hen for 21 consecutive days (Szelenyi and Peczely 1988)): diminished egg production but did not result in molting
Mortality (laying hens; injected, e.g. 243 micrograms/100 g body weight, White Leghorn hens 7 months of age (Miller et al. 1962)): 47%

— patent publication US8415299B2, “Methods for improved avian performance” (priority 2004, dated 2013)
